Measured values as given in patent US12227520B2 (priority 2019, dated 2025).
Where two headings read alike, the source gives them in different places.

Tests used:
[1] = Cytotoxicity assay in MT-4 cells; type: cell-based, human; conditions: human, uninfected MT-4 cells, 5 days incubation; read-out: CC50
Method in brief: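 For cytotoxicity, uninfected MT-4 cells were incubated with compounds 5 days at 37 °C, with 10 μM puromycin marking base cytotoxicity. Parallel plates used HIV-1 IIIB-infected (1:250 stock dilution) or mock cells with 5 μM AZT and no-drug controls. Read-out: CellTiter-Glo chemiluminescence.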

[2] = system: pLai RLuc reporter virus; experiment: microbe, parasite or virus in culture; type: cell-based, HIV; conditions: Human immunodeficiency virus 1, 72 h
Description: To quantify the amount of protein binding to human serum, compounds were serially diluted (1:3) in DMSO and acoustically transferred onto 384-well assay plates via a Labcyte ECHO robot. Each plate contained up to 8 test compounds, including negative and positive controls, (DMSO, 5 μM AZT respectively). Assay plates were prepared in duplicate, and tested in either CCM (cell culture media) or HS/CCM (human serum/cell culture media). MT-4 cells were first pre-infected with pLai RLuc reporter virus for 2 h at 37° C., then further diluted in either CCM (RPMI media, 10% FBS, 1% P/S) or HS/CCM (RPMI media, 10% FBS, 50% HS, 1% P/S), and subsequently added to each plate using a Biotek Micro Flow dispenser. After a 72-h incubation in a humidified and temperature controlled incubator (37° C.), Renilla Glo (Promega) was added to all assay plates and chemiluminescence read using an Envision plate-reader. […] To determine the amount of protein binding, EC50 fold shifts (or EC50 shifts) were calculated by dividing EC50 (HS/CCM)/EC50 (CCM).

[3] = system: HIV-1 (IIIB); experiment: Antiviral assay in MT-4 cells (HIV MT-4 antiviral assay); type: cell-based; conditions: Human immunodeficiency virus 1, IIIB, MT4, 120 h, HIV-1 (IIIB) in MT-4 cells, 5 days incubation; read-out: EC50
Method in brief: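 Read-out is CellTiter-Glo chemiluminescence after 5-day culture at 37° C, giving protection of MT-4 cells from HIV-1 IIIB cytopathicity. Compounds tested in 1:3 dilution series in complete RPMI; controls were no drug, mock infection and 5 μM AZT.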

[4] = read-out: Antiviral Serum Shift RLuc 50% HS, HS/CCM (RPMI media, 10% FBS, 50% HS, 1% P/S), 72-h incubation
[5] = read-out: Antiviral Serum Shift RLuc CCM, CCM (RPMI media, 10% FBS, 1% P/S), 72-h incubation

SMILES	CC50 at 5 days [1] [nM]	EC50 [2, 4] [nM]	EC50 [2, 5] [nM]	EC50 [3] [nM]
C[C@@H]1N2C[C@H](CCC1(C)F)n1cc(C(=O)NCc3c(F)cc(F)cc3F)c(=O)c(O)c1C2=O (stereo partly drawn) [Example 144-1, (3S,7S)-4-fluoro-12-hydroxy-3,4-dimethyl-1,11-dioxo-N-(2,4,6-trifluorobenzyl)-1,4,5,6,7,11-hexahydro-3H-2,7-methanopyrido[1,2-a][1,4]diazonine-10-carboxamide]	9180	2.63	0.285	1.65
C[C@H]1C=CC[C@H]2CN1C(=O)c1c(O)c(=O)c(C(=O)NCc3c(F)cc(F)cc3F)cn12 [Example 148, (3S,7S)-12-hydroxy-3-methyl-1,11-dioxo-N-(2,4,6-trifluorobenzyl)-1,6,7,11-tetrahydro-3H-2,7-methanopyrido[1,2-a][1,4]diazonine-10-carboxamide]	13800	6.34	0.182	1.67
O=C(NCc1ccc(F)cc1F)c1cn2c(c(O)c1=O)C(=O)N1CCCC(F)(F)[C@H]2C1 [Example 16-2, (7R)—N-(2,4-difluorobenzyl)-6,6-difluoro-12-hydroxy-1,11-dioxo-1,4,5,6,7,11-hexahydro-3H-2,7-methanopyrido[1,2-a][1,4]diazonine-10-carboxamide]	36200	82.5	0.85	5.3
C[C@@H]1CCC[C@@H]2CN1C(=O)c1c(O)c(=O)c(C(=O)NCc3ccc(F)cc3F)cn12 [Example 52-3, (3R, 7R)—N-(2,4-difluorobenzyl)-12-hydroxy-3-methyl-1,11-dioxo-1,4,5,6,7,11-hexahydro-3H-2,7-methanopyrido[1,2-a][1,4]diazonine-10-carboxamide]	15500	114	0.589	3.05
O=C(NCc1c(F)cc(F)cc1F)c1cn2c(c(O)c1=O)C(=O)N1C[C@@H]2CS(=O)(=O)c2ccccc21 [Example 96, (6R)-1-hydroxy-2,14-dioxo-N-(2,4,6-trifluorobenzyl)-2,6,7,14-tetrahydro-6,13-methanobenzo[b]pyrido[2,1-f][1,4,7]thiadiazonine-3-carboxamide 8,8-dioxide]	> 50000	3.33	3.09	18.1
O=C(NCc1c(F)cc(F)cc1F)c1cn2c(c(O)c1=O)C(=O)N1Cc3cc(F)c(F)cc3C[C@@H]2C1 (single isomer, unassigned) [Example 159]	> 43600	2.56	0.976	3.52
O=C(NCc1ccc(F)cc1F)c1cn2c(c(O)c1=O)C(=O)N1CCCC[C@H]2C1 (single isomer, unassigned) [Example 25-2]	10800	1.14	0.285	1.46
C[C@H]1CC[C@H](C)N2C[C@H]1n1cc(C(=O)NCc3ccc(F)cc3F)c(=O)c(O)c1C2=O [Example 187, (3S,6S,7S)—N-(2,4-difluorobenzyl)-12-hydroxy-3,6-dimethyl-1,11-dioxo-1,4,5,6,7,11-hexahydro-3H-2,7-methanopyrido[1,2-a][1,4]diazonine-10-carboxamide]	10800	44	0.383	1.18
O=C(NCc1c(F)cc(F)cc1F)c1cn2c(c(O)c1=O)C(=O)N1Cc3cc(F)c(F)cc3C[C@H]2C1 [Example 88, (6S)-9,10-difluoro-1-hydroxy-2,14-dioxo-N-(2,4,6-trifluorobenzyl)-2,7,12,14-tetrahydro-6H-6,13-methanobenzo[f]pyrido[1,2-a][1,4]diazonine-3-carboxamide]	> 23400	1.62	0.269	1.61
O=C(NCc1cccc(F)c1F)c1cn2c(c(O)c1=O)C(=O)N1CCCC[C@H]2C1 [Example 160, (7S)—N-(2,3-difluorobenzyl)-12-hydroxy-1,11-dioxo-1,4,5,6,7,11-hexahydro-3H-2,7-methanopyrido[1,2-a][1,4]diazonine-10-carboxamide]	11400	1.19	0.368	1.52
O=C(NCc1c(F)cc(F)cc1F)c1cn2c(c(O)c1=O)C(=O)N1CCc3cc(F)c(F)cc3[C@H]2C1 (single isomer, unassigned) [Example 110-1]	9870	2.75	0.323	2
